Reference: patent US20260193293A1, “PEPTIDES CAPABLE OF INHIBITING PROTEIN-PROTEIN INTERACTIONS AT GABAB1A SUBUNIT AND USES THEREOF” (UNIVERSITY OF COPENHAGEN, priority 2022, published 2026)
Read-outs that look alike come from different tables or passages of the source. Non-standard residues stand in square brackets, D forms with d. Residues, ends and D or L forms follow the SMILES beside them. 1Nal = N[C@@H](Cc1cccc2ccccc12)C(=O)O; NMeA = CN[C@@H](C)C(=O)O; Sar = CNCC(=O)O

Target: Sushi domains (SD1/2) protein
Test: Fluorescence polarization (FP) competition assay with AJAP-1probe, calculated Ki
Assay type: binding
Procedure, shortened: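 Ki values were derived from IC50s (sigmoidal fits, ≥ triplicate), with probe Kd obtained by saturation titration of SD1/2. Peptides displaced a 25 nM TAMRA-labelled probe; polarization read at 530/580 nm in 1% BSA-containing PBS, pH 7.4, room temperature.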

[1] = Table 11, deep mutational scanning validation variants of AJAP-1WT, read-out: Ki (nM) mean ± SEM
[2] = Table 10, deep mutational scanning validation variants of APPWT, read-out: Ki (nM) mean ± SEM
[3] = Table 13, peptides for affinity maturation, read-out: Ki (nM) mean ± SEM

Q: How did the Ki [1] turn out when `CC[C@H](C)[C@H](NC(=O)[C@H](Cc1ccccc1)NC(=O)[C@H](CCC(=O)O)NC(=O)[C@@H](NC(=O)[C@H](CCC(=O)O)NC(C)=O)[C@@H](C)O)C(=O)N[C@@H](C)C(=O)N[C@@H](Cc1c[nH]c2ccccc12)C(=O)NCC(=O)N1CCC[C@H]1C(=O)N[C@H](C(=O)NCC(=O)N[C@@H](CC(=O)O)C(=O)N[C@@H](CCCNC(=N)N)C(=O)N[C@@H](CC(=O)O)C(N)=O)[C@@H](C)O` (Ac-ETEFIAWGPTGDRD-NH2) was run?
A: 54 ± 2 nM

Q: `CC(=O)N[C@@H](CCC(=O)O)C(=O)N[C@@H](CC(=O)O)C(=O)N[C@@H](CC(=O)O)C(=O)N[C@@H](CO)C(=O)N[C@@H](CC(=O)O)C(=O)N[C@H](C(=O)N[C@@H](Cc1c[nH]c2ccccc12)C(=O)N[C@@H](Cc1c[nH]c2ccccc12)C(=O)NCC(=O)NCC(=O)N[C@@H](Cc1ccc(O)cc1)C(=O)N[C@@H](CC(=O)O)C(=O)N[C@H](C(=O)N[C@@H](CC(=O)O)C(N)=O)[C@@H](C)O)C(C)C` (Ac-EDDSDVWWGGYDTD-NH2) was tested. Which Ki [2] did it give?
A: 255 ± 11 nM

Q: How did the Ki (Table 5, elongation and truncation scan of AJAP-1 binding epitope, read-out: Ki (nM) mean ± SEM) turn out when `CC[C@H](C)[C@H](NC(=O)[C@H](Cc1ccccc1)NC(C)=O)C(=O)N[C@@H](C)C(=O)N[C@@H](Cc1c[nH]c2ccccc12)C(=O)NCC(=O)N1CCC[C@H]1C(=O)N[C@H](C(=O)NCC(=O)N[C@@H](CC(=O)O)C(=O)N[C@@H](CCC(=O)O)C(=O)N[C@@H](CC(=O)O)C(N)=O)[C@@H](C)O` [FIAWGPTGDED] (Ac-FIAWGPTGDED-NH2) was run?
A: 118 ± 1 nM

Q: How did the Ki [3] turn out when `CC(=O)N[C@@H](CCC(=O)O)C(=O)N[C@@H](CC(=O)O)C(=O)N[C@@H](CC(=O)O)C(=O)N[C@@H](CO)C(=O)N[C@@H](CC(=O)O)C(=O)N[C@H](C(=O)N[C@@H](Cc1c[nH]c2ccccc12)C(=O)N[C@@H](Cc1c[nH]c2ccccc12)C(=O)N[C@@H](Cc1ccc(O)cc1)C(=O)N(C)CC(=O)N[C@H](C(=O)NCC(=O)N[C@@H](CC(=O)O)C(=O)N[C@@H](CCC(=O)O)C(=O)N[C@@H](CC(=O)O)C(N)=O)[C@@H](C)O)C(C)C` (Ac-EDDSDVWWY[Sar]TGDED-NH2) was run?
A: 142 ± 3 nM

Q: With `CC[C@H](C)[C@H](NC(=O)[C@H](Cc1c[nH]c2ccccc12)NC(=O)[C@H](CC(=O)O)NC(=O)[C@H](CC(=O)O)NC(=O)[C@H](CC(=O)O)NC(=O)[C@H](CCC(=O)O)NC(C)=O)C(=O)N[C@@H](CC(=O)O)C(=O)N[C@@H](Cc1c[nH]c2ccccc12)C(=O)N[C@@H](Cc1ccc(O)cc1)C(=O)N[C@@H](CC(=O)O)C(=O)N[C@@H](CO)C(=O)N[C@@H](CC(=O)O)C(=O)N[C@@H](CC(=O)O)C(=O)N[C@@H](CC(=O)O)C(=O)N[C@@H](CCC(=O)O)C(=O)N[C@@H](C)C(=O)N[C@@H](C)C(=O)N[C@@H](C)C(=O)N[C@@H](CCCCN)C(=O)N[C@@H](CCCNC(=N)N)C(=O)N[C@@H](CCCNC(=N)N)C(=O)N[C@@H](CCCNC(=N)N)C(=O)N[C@@H](CCCNC(=N)N)C(=O)N[C@@H](CCCNC(=N)N)C(=O)N[C@@H](CCCNC(=N)N)C(=O)N[C@@H](CCCNC(=N)N)C(=O)N[C@@H](CCCNC(=N)N)C(N)=O` [Peptide 16-RL-R8] (Ac-EDDDWIDWYDSDDDEAAAKRRRRRRRR-NH2) as the compound, how does the Ki (CPP tagged peptides overview, SD1/2 binding affinity, mean ± SEM, n ≥ 3, read-out: Ki) read?
A: 100 ± 4 nM

Q: And the Ki (Table 14, CPPs tagged peptides, read-out: Ki (nM) mean ± SEM)?
A: 99.5 ± 4 nM

Q: Which Ki [1] does the source give for `CC[C@H](C)[C@H](NC(=O)[C@H](Cc1ccccc1)NC(=O)[C@H](CCC(=O)O)NC(=O)[C@@H](NC(=O)[C@H](CCC(=O)O)NC(C)=O)[C@@H](C)O)C(=O)N[C@@H](C)C(=O)N[C@@H](Cc1c[nH]c2ccccc12)C(=O)NCC(=O)N1CCC[C@H]1C(=O)N[C@@H](Cc1ccccc1)C(=O)NCC(=O)N[C@@H](CC(=O)O)C(=O)N[C@@H](CCC(=O)O)C(=O)N[C@@H](CC(=O)O)C(N)=O` [ETEFIAWGPFGDED] (Ac-ETEFIAWGPFGDED-NH2) here?
A: 40 ± 1 nM

Q: Which Ki (Table 6, elongation and truncation scan of PIANP binding epitope, read-out: Ki (nM) mean ± SEM) does the source give for `CC[C@H](C)[C@H](NC(=O)[C@H](C)NC(=O)[C@H](Cc1c[nH]c2ccccc12)NC(=O)[C@@H]1CCCN1C(=O)[C@H](Cc1ccc(O)cc1)NC(=O)[C@H](CCC(N)=O)NC(=O)[C@H](CO)NC(C)=O)C(=O)N[C@H](C(=O)N[C@@H](Cc1c[nH]c2ccccc12)C(=O)NCC(=O)N1CCC[C@H]1C(=O)N[C@H](C(=O)N[C@H](C(=O)N[C@@H](CO)C(=O)N[C@@H](CCCNC(=N)N)C(=O)N[C@@H](CCC(=O)O)C(=O)N[C@@H](CC(=O)O)C(=O)NCC(N)=O)C(C)C)[C@@H](C)O)C(C)C` (Ac-SQYPWAIVWGPTVSREDG-NH2) here?
A: 762 ± 13 nM

Q: `CC(=O)N[C@@H](CCC(=O)O)C(=O)N[C@@H](CC(=O)O)C(=O)N[C@@H](CC(=O)O)C(=O)N[C@@H](CO)C(=O)N[C@@H](CC(=O)O)C(=O)N[C@H](C(=O)N[C@@H](Cc1ccc(O)cc1)C(=O)N[C@@H](Cc1c[nH]c2ccccc12)C(=O)NCC(=O)NCC(=O)N[C@@H](C)C(=O)N[C@@H](CC(=O)O)C(=O)N[C@H](C(=O)N[C@@H](CC(=O)O)C(N)=O)[C@@H](C)O)C(C)C` (Ac-EDDSDVYWGGADTD-NH2) was tested. Which Ki [2] did it give?
A: 3600 ± 49 nM

Q: Which Ki (Table 7, Ala-, D-amino acids and N-methylation scans of APPWT, read-out: Ki (nM) mean ± SEM) does the source give for `CC(=O)N[C@@H](CCC(=O)O)C(=O)N[C@@H](CC(=O)O)C(=O)N[C@@H](CC(=O)O)C(=O)N[C@@H](CO)C(=O)N[C@@H](CC(=O)O)C(=O)N[C@H](C(=O)N[C@@H](Cc1c[nH]c2ccccc12)C(=O)N[C@@H](Cc1c[nH]c2ccccc12)C(=O)NCC(=O)NCC(=O)N(C)[C@@H](C)C(=O)N[C@@H](CC(=O)O)C(=O)N[C@H](C(=O)N[C@@H](CC(=O)O)C(N)=O)[C@@H](C)O)C(C)C` (Ac-EDDSDVWWGG[NMeA]DTD-NH2) here?
A: 704 ± 11 nM

Q: How did the Ki (Table 1, affinity maturation, mean ± SEM, n ≥ 3, read-out: Ki) turn out when `CC[C@H](C)[C@H](NC(=O)[C@H](Cc1ccccc1)NC(=O)[C@H](CCC(=O)O)NC(=O)[C@@H](NC(=O)[C@H](CCC(=O)O)NC(C)=O)[C@@H](C)O)C(=O)N[C@@H](C)C(=O)N[C@@H](Cc1c[nH]c2ccccc12)C(=O)NCC(=O)NCC(=O)N[C@@H](C)C(=O)N[C@@H](CC(=O)O)C(=O)N[C@H](C(=O)N[C@@H](CC(=O)O)C(N)=O)[C@@H](C)O` [Peptide Y] (Ac-ETEFIAWGGADTD-NH2) was run?
A: 354 ± 9 nM

Q: What about the Ki [3] of the same compound?
A: 345 ± 9 nM

Q: For `CC(=O)N[C@@H](CCC(=O)O)C(=O)N[C@@H](CC(=O)O)C(=O)N[C@@H](CC(=O)O)C(=O)N[C@@H](CO)C(=O)N[C@@H](CC(=O)O)C(=O)N[C@H](C(=O)N[C@@H](Cc1c[nH]c2ccccc12)C(=O)N[C@@H](Cc1c[nH]c2ccccc12)C(=O)N[C@@H](Cc1cccc2ccccc12)C(=O)NCC(=O)N[C@@H](C)C(=O)N[C@@H](CC(=O)O)C(=O)N[C@H](C(=O)N[C@@H](CC(=O)O)C(N)=O)[C@@H](C)O)C(C)C` (Ac-EDDSDVWW[1Nal]GADTD-NH2), which Ki (Table 16, ncAAs incorporated peptides, read-out: Ki (nM) mean ± SEM) is on record?
A: 114 ± 1 nM

Q: `CC[C@H](C)[C@H](NC(=O)[C@H](C)NC(=O)[C@H](Cc1c[nH]c2ccccc12)NC(=O)[C@H](C)NC(C)=O)C(=O)N[C@H](C(=O)N[C@@H](Cc1c[nH]c2ccccc12)C(=O)NCC(=O)N1CCC[C@H]1C(=O)N[C@H](C(=O)N[C@H](C(=O)N[C@@H](CO)C(=O)N[C@@H](CCCNC(=N)N)C(=O)N[C@@H](CCC(=O)O)C(=O)N[C@@H](CC(=O)O)C(N)=O)C(C)C)[C@@H](C)O)C(C)C` [AWAIVWGPTVSRED] (Ac-AWAIVWGPTVSRED-NH2) was tested. Which Ki (Table 9, Ala-, D-amino acids and N-methylation scans of PIANPWT, read-out: Ki (nM) mean ± SEM) did it give?
A: 552 ± 20 nM

Q: For `CC(=O)N[C@@H](CCC(=O)O)C(=O)N[C@@H](CCC(=O)O)C(=O)N[C@@H](CC(=O)O)C(=O)N[C@@H](CC(=O)O)C(=O)N[C@@H](CO)C(=O)N[C@@H](CC(=O)O)C(=O)N[C@H](C(=O)N[C@@H](Cc1c[nH]c2ccccc12)C(=O)N[C@@H](Cc1c[nH]c2ccccc12)C(=O)NCC(=O)NCC(=O)N[C@@H](C)C(=O)N[C@@H](CC(=O)O)C(=O)N[C@H](C(=O)N[C@@H](CC(=O)O)C(=O)N[C@@H](Cc1ccc(O)cc1)C(=O)N[C@@H](C)C(=O)N[C@@H](CC(=O)O)C(=O)NCC(=O)NCC(N)=O)[C@@H](C)O)C(C)C` (Ac-EEDDSDVWWGGADTDYADGG-NH2), which Ki (Table 4, truncation and elongation scans of APP epitope, read-out: Ki (nM) mean ± SEM) is on record?
A: 341 ± 6 nM
